According to patent publication US10335401B2, “Non-aromatic heterocyclic derivative having MGAT2 inhibitory activity” (Shionogi & Co., Ltd., priority 2015, dated 2019):

Biological target: recombinant human MGAT2 (Homo sapiens (Human), UniProt Q3SYC2)
Experiment: Measurement of human MGAT2 inhibitory activity
Format: biochemical
Settings: recombinant human MGAT2 membrane fraction (Sf-9); 2-Oleoylglycerol and Oleoyl-CoA substrates; 1 hour at room temperature; Diolein detected by RapidFire Q-TOF MS
Excerpt: A full-length human MGAT2 gene to which a Flag-tag had been added at the N-terminal was inserted into pFastBac (from Invitrogen). A recombinant baculovirus was produced in accordance with the protocol for a Bac-to-Bac baculovirus expression system (produced by Invitrogen), and Sf-9 cells were infected therewith. The cells were collected and sonicated, and then the membrane fraction was collected through centrifugation.
Solutions of the compounds of the present invention in DMSO were each aliquoted into 0.2-μL portions in a 384-well polystyrene microplate produced by Corning Incorporated, and 5 μL of an enzyme solution prepared with an assay buffer (100 mmol/L phosphate buffer (pH 7.4) containing 2 mmol/L DTT) and 5 μL of a substrate solution (100 mmol/L phosphate buffer (pH 7.4), 30 μmol/L 2-Oleoylglycerol, 10 μmol/L Oleoyl-CoA) were added thereto, and the resultant was stirred and centrifuged, and incubated in a moist chamber at room temperature for 1 hour. […] Diolein as a reaction product (P) of 2-Oleoylglycerol as the substrate and an ammonium adduct ion of the IS were detected, and the peak intensity ratio, P/IS, was calculated from the peak heights to evaluate the inhibitory activity. […] The inhibitory activity was calculated from the formula below with TIBCO Spotfire (produced by TIBCO Software Inc.): Inhibitory activity (%)=[1−{Sample−Control(−)}/{Control(+)−Control(−))}]*100 where Sample indicates a peak intensity ratio: P/IS, when the compound of the present invention was added.

Sequence of recombinant human MGAT2 (Q3SYC2 whole entry): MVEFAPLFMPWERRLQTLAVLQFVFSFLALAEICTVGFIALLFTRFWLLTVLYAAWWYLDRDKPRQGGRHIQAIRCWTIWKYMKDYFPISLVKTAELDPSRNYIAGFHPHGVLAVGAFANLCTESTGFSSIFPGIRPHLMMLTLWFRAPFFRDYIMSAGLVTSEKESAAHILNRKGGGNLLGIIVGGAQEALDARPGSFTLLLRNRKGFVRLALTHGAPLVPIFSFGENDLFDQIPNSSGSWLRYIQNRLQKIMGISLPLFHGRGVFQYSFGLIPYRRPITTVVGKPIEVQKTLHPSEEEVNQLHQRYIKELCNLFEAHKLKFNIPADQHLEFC

Row | Compound | IC50
1 | CS(=O)(=O)CC(=O)NCC1=C(c2ccc(OC(F)F)cn2)C[C@](c2ccc(-c3ccccc3)cc2)(C(F)(F)F)NC1=O [Compound I-99] | 0.026 µM
2 | O=C(CO)NCC1=C(c2ccc(OC(F)F)cn2)C[C@](c2ccc(OCCCC(F)(F)F)cc2)(C(F)(F)F)NC1=O [Compound I-62] | 0.059 µM
3 | COC/C=C/c1ccc([C@]2(C(F)(F)F)CC(c3ccc(OC(F)F)cn3)=C(CNC(=O)CS(C)(=O)=O)C(=O)N2)cc1 [Compound I-102] | 0.021 µM
4 | CC(=O)NCC1=C(c2ncc(C3CC3)s2)C[C@](c2ccc(OCCCC(F)(F)F)cc2)(C(F)(F)F)NC1=O [Compound I-68] | 0.44 µM
5 | CC(C)(C(=O)NCC1=C(c2ccc(C(F)F)cn2)C[C@](c2ccc(OCCCC(F)(F)F)cc2)(C(F)(F)F)NC1=O)S(C)(=O)=O [Compound I-80] | 0.99 µM
6 | COc1ccc(C2=C(CNS(=O)(=O)C3CCOCC3)C(=O)N[C@@](c3ccc(OCCCC(F)(F)F)cc3)(C(F)(F)F)C2)nc1 [Compound I-22] | 0.2 µM
7 | CS(=O)(=O)CC(=O)NCC1=C(c2ccc(C(F)F)cn2)C[C@](c2ccc(C(F)(F)F)cc2)(C(F)(F)F)NC1=O [Compound I-75] | 0.078 µM
8 | Cc1ccc(C2=C(CNC(=O)C3CS(=O)(=O)C3)C(=O)N[C@@](c3ccc(OCCCC(F)(F)F)cc3)(C(F)(F)F)C2)nc1 [Compound I-29] | 0.018 µM
9 | CS(=O)(=O)CC(=O)NCC1=C(c2ccc(OC(F)F)cn2)C[C@](c2ccc(OCCCC(F)(F)F)cc2)(C(F)(F)F)NC1=O [Compound I-57] | 0.00062 µM
10 | Cc1ccc(C2=C(CNC(=O)c3ccno3)C(=O)N[C@@](c3ccc(OCCCC(F)(F)F)cc3)(C(F)(F)F)C2)nc1 [Compound I-27] | 0.0022 µM
11 | O=C(CO)NCC1=C(c2ccc(C(F)F)cn2)C[C@](c2ccc(OCCCC(F)(F)F)cc2)(C(F)(F)F)NC1=O [Compound I-63] | 0.11 µM
12 | CS(=O)(=O)CC(=O)NCC1=C(c2ccc(OC(F)F)cn2)C[C@](c2ccc(OCC(F)(F)F)cc2)(C(F)(F)F)NC1=O [Compound I-114] | 0.0041 µM
13 | CC(=O)NCC1=C(c2ccc(C(C)=O)cn2)C[C@](c2ccc(OCCCC(F)(F)F)cc2)(C(F)(F)F)NC1=O [Compound I-51] | 0.13 µM
14 | CS(=O)(=O)CC(=O)NCC1=C(c2ccc(OC(F)F)cn2)C[C@](c2ccc(OCC(F)F)cc2)(C(F)(F)F)NC1=O [Compound I-105] | 0.0092 µM
15 | COc1ccc(C2=C(CNC(=O)c3ccno3)C(=O)N[C@@](c3ccc(OCCCC(F)(F)F)cc3)(C(F)(F)F)C2)nc1 [Compound I-17] | 0.0076 µM
16 | CS(=O)(=O)CC(=O)NCC1=C(c2ccc(Br)cn2)C[C@](c2ccc(OCCCC(F)(F)F)cc2)(C(F)(F)F)NC1=O [Compound I-70] | 0.0053 µM
17 | CC(C)c1ccc(C2=C(CNC(=O)C3COC3)C(=O)N[C@@](c3ccc(OCCCC(F)(F)F)cc3)(C(F)(F)F)C2)nc1 [Compound I-53] | 0.011 µM
18 | Cc1ccc(C2=C(CNS(C)(=O)=O)C(=O)N[C@@](c3ccc(OCCCC(F)(F)F)cc3)(C(F)(F)F)C2)cc1 [Compound I-1] | 0.021 µM
19 | CC(C)c1ccc(C2=C(CNC(=O)CO)C(=O)N[C@@](c3ccc(OCCCC(F)(F)F)cc3)(C(F)(F)F)C2)nc1 [Compound I-60] | 0.027 µM
20 | Cn1ccc(-c2ccc([C@]3(C(F)(F)F)CC(c4ccc(OC(F)F)cn4)=C(CNC(=O)CS(C)(=O)=O)C(=O)N3)cc2)cc1=O [Compound I-100] | 0.37 µM
21 | COc1ccc(C2=C(CNC(=O)C3CCC3)C(=O)N[C@@](c3ccc(OCCCC(F)(F)F)cc3)(C(F)(F)F)C2)nc1 [Compound I-15] | 0.01 µM
22 | COc1ccc(C2=C(CNC(=O)CS(C)(=O)=O)C(=O)N[C@@](c3ccc(OCCCC(F)(F)F)cc3)(C(F)(F)F)C2)nc1 [Compound I-12] | 0.0025 µM
23 | COc1ccc(C2=C(CNC(=O)CC(C)(C)C)C(=O)N[C@@](c3ccc(OCCCC(F)(F)F)cc3)(C(F)(F)F)C2)nc1 [Compound I-16] | 0.052 µM
24 | CC(=O)NCC1=C(c2ccc(C(C)(C)O)cn2)C[C@](c2ccc(OCCCC(F)(F)F)cc2)(C(F)(F)F)NC1=O [Compound I-42] | 0.01 µM
25 | CC(C)c1ccc(C2=C(CNC(=O)CC(=O)OC(C)(C)C)C(=O)N[C@@](c3ccc(OCCCC(F)(F)F)cc3)(C(F)(F)F)C2)nc1 [Compound I-54] | 0.082 µM
26 | CC(C)c1ccc(C2=C(CNC(=O)C(C)(C)C#N)C(=O)N[C@@](c3ccc(OCCCC(F)(F)F)cc3)(C(F)(F)F)C2)nc1 [Compound I-45] | 0.0044 µM
27 | Cc1ccc(C2=C(CNS(N)(=O)=O)C(=O)N[C@@](c3ccc(OCCCC(F)(F)F)cc3)(C(F)(F)F)C2)nc1 [Compound I-5] | 0.23 µM

Row | Compound | IC50
28 | CC(C(=O)NCC1=C(c2ccc(C(F)F)cn2)C[C@](c2ccc(OCCCC(F)(F)F)cc2)(C(F)(F)F)NC1=O)S(C)(=O)=O (stereo partly drawn) [Compound I-83] | 0.022 µM
29 | CC(C)c1ccc(C2=C(CNC(=O)CN(C)C)C(=O)N[C@@](c3ccc(OCCCC(F)(F)F)cc3)(C(F)(F)F)C2)nc1 [Compound I-61] | 0.027 µM
30 | Cc1ccc(C2=C(CNC(=O)CC(F)(F)F)C(=O)N[C@@](c3ccc(OCCCC(F)(F)F)cc3)(C(F)(F)F)C2)nc1 [Compound I-26] | 0.0023 µM
31 | Cc1ccc(C2=C(CNC(N)=O)C(=O)N[C@@](c3ccc(OCCCC(F)(F)F)cc3)(C(F)(F)F)C2)nc1 [Compound I-6] | 0.12 µM
32 | CS(=O)(=O)CC(=O)NCC1=C(c2ccc(C(F)F)cn2)C[C@](c2ccc(OCCCC(F)(F)F)cc2)(C(F)(F)F)NC1=O [Compound I-59] | 0.0011 µM
33 | COc1ccc(C2=C(CNS(C)(=O)=O)C(=O)N[C@@](c3ccc(OCCCC(F)(F)F)cc3)(C(F)(F)F)C2)nc1 [Compound I-18] | 0.33 µM
34 | CS(=O)(=O)CC(=O)NCC1=C(c2ccc(OC(F)F)cn2)C[C@](c2ccc(OCCCC(F)(F)F)cn2)(C(F)(F)F)NC1=O [Compound I-103] | 0.0066 µM
35 | CS(=O)(=O)CC(=O)NCC1=C(c2ccc(C(F)F)cn2)C[C@](c2ccc(Br)cc2)(C(F)(F)F)NC1=O [Compound I-94] | 0.059 µM
36 | CC(=O)NCC1=C(c2ccc(C)cn2)C[C@](c2ccc(OCCCC(F)(F)F)cc2)(C(F)(F)F)NC1=O [Compound I-4] | 0.032 µM
37 | Cc1ccc(C2=C(CNS(=O)(=O)CC#N)C(=O)N[C@@](c3ccc(OCCCC(F)(F)F)cc3)(C(F)(F)F)C2)nc1 [Compound I-28] | 0.1 µM
38 | CC(C)(C)OC(=O)N1CC(C(=O)NCC2=C(c3ccc(C(F)F)cn3)C[C@](c3ccc(OCCCC(F)(F)F)cc3)(C(F)(F)F)NC2=O)C1 [Compound I-64] | 0.014 µM
39 | Cc1ccc(C2=C(CNC(=O)CO)C(=O)N[C@@](c3ccc(OCCCC(F)(F)F)cc3)(C(F)(F)F)C2)nc1 [Compound I-31] | 0.07 µM
40 | COc1ccc(C2=C(CNC(=O)C3COC3)C(=O)N[C@@](c3ccc(OCCCC(F)(F)F)cc3)(C(F)(F)F)C2)nc1 [Compound I-36] | 0.053 µM
41 | C=C(C)c1ccc(C2=C(CNC(=O)CS(C)(=O)=O)C(=O)N[C@](c3ccc(OCCCC(F)(F)F)cc3)(C(F)(F)F)C2)nc1 [Compound I-73] | 0.077 µM
42 | COc1ccc(C2=C(CNC(=O)C3CC(=O)C3)C(=O)N[C@@](c3ccc(OCCCC(F)(F)F)cc3)(C(F)(F)F)C2)nc1 [Compound I-24] | 0.04 µM
43 | COc1ccc(C2=C(CNC(C)=O)C(=O)N[C@@](c3ccc(OCCCC(F)(F)F)cc3)(C(F)(F)F)C2)nc1 (racemic) [Compound I-11] | 0.11 µM
44 | CC(=O)NCC1=C(c2ccc(Br)cn2)C[C@](c2ccc(OCCCC(F)(F)F)cc2)(C(F)(F)F)NC1=O [Compound I-49] | 0.14 µM
45 | COc1ccc(C2=C(CNC(=O)NC(C)C)C(=O)N[C@@](c3ccc(OCCCC(F)(F)F)cc3)(C(F)(F)F)C2)nc1 [Compound I-32] | 0.097 µM
46 | O=C1N[C@@](c2ccc(OCCCC(F)(F)F)cc2)(C(F)(F)F)CC(c2ccc(C(F)F)cn2)=C1CNC(=O)C1(F)CNC1 [Compound I-67] | 0.04 µM
47 | CS(=O)(=O)CC(=O)NCC1=C(c2ccc(OC(F)F)cn2)C[C@](c2ccc(C3=CCOCC3)cc2)(C(F)(F)F)NC1=O [Compound I-101] | 0.042 µM
48 | Cc1ccc(C2=C(CNC(=O)CC#N)C(=O)N[C@@](c3ccc(OCCCC(F)(F)F)cc3)(C(F)(F)F)C2)nc1 [Compound I-30] | 0.012 µM
49 | COc1ccc(C2=C(CNC(=O)C3CS(=O)(=O)C3)C(=O)N[C@@](c3ccc(OCCCC(F)(F)F)cc3)(C(F)(F)F)C2)nc1 [Compound I-46] | 0.062 µM
50 | COc1ccc(C2=C(CNS(=O)(=O)CC#N)C(=O)N[C@@](c3ccc(OCCCC(F)(F)F)cc3)(C(F)(F)F)C2)nc1 [Compound I-20] | 0.035 µM
51 | CC1(C(=O)NCC2=C(c3ccc(C(F)F)cn3)C[C@](c3ccc(OCCCC(F)(F)F)cc3)(C(F)(F)F)NC2=O)CNC1 [Compound I-66] | 0.41 µM
52 | COc1ccc(C2=C(CNC(=O)CC#N)C(=O)N[C@@](c3ccc(OCCCC(F)(F)F)cc3)(C(F)(F)F)C2)nc1 [Compound I-37] | 0.028 µM
53 | CC(=O)NCC1=C(c2ccc(OC(F)F)cn2)C[C@](c2ccc(OCCCC(F)(F)F)cc2)(C(F)(F)F)NC1=O [Compound I-56] | 0.017 µM
54 | COc1ccc(C2=C(CNC(=O)C(C)(C)C#N)C(=O)N[C@@](c3ccc(OCCCC(F)(F)F)cc3)(C(F)(F)F)C2)nc1 [Compound I-38] | 0.017 µM
